Data on three compounds can be found in patent US20090221624A1, “4-AMINOQUINOLINE COMPOUNDS FOR TREATING VIRUS-RELATED CONDITIONS” (priority 2005, published 2009).

In data set [1] the test system is EBOV minigenome. The data set is described as follows: microbe, parasite or virus in culture. The format is cell-based, Ebola virus. Conditions: Zaire ebolavirus; for inhibition at 25 µM: 24 h, read-out: EBOV Inh; for EC50: read-out: EBOV EC50.
Data set [2] in a line: in vitro.
Data set [3] relates to YFV (YF-hRuPac cells). Nature of the data set: microbe, parasite or virus in culture. Conditions: for inhibition at 25 µM / EC50: Yellow fever virus; for inhibition at 25 µM: 24 h, read-out: YFV Inh; for EC50: read-out: YFV EC50. In kind it is cell-based, yellow fever virus.
The subject of data set [4] is SINV (SR19-F-luc cells). The data set is described as follows: SINV antiviral activity, SR19-F-luc cells, Firefly luciferase. In kind it is cell-based. Conditions: Sindbis virus; for inhibition at 25 µM: primary screening, 25 μM final concentration, 24 hours, percent inhibition of viral replication, read-out: SINV Inh; for EC50: secondary screening, SR19-F-luc cells.
In data set [5] the test system is DNG (D2-hRuPac cells). The data set is described as follows: DNG antiviral activity, D2-hRuPac cells, Renilla luciferase. In kind it is cell-based, Dengue fever virus. The conditions noted are these: Dengue virus, secondary screening.
Data set [6] has as its system RSV minigenome. Nature of the data set: RSV minigenome-dependent β-galactosidase expression assay (RSV β-Gal). Conditions: for EC50 / inhibition at 25 µM: human respiratory syncytial virus; for EC50: Secondary Data, RSV, read-out: RSV EC50; for inhibition at 25 µM: primary screening, 25 μM final concentration, 24 hours, percent inhibition of viral replication, read-out: RSV Inh; for RSV TI: therapeutic index CC50/EC50, RSV. In kind it is cell-based, respiratory syncytial virus.

In data set [7] the test system is WNV (WN-hRuPac cells). The data set is described as follows: WNV antiviral activity, WN-hRuPac cells, Renilla luciferase. The format is cell-based, West Nile virus. Conditions: for EC50 / inhibition at 25 µM: West Nile virus; for EC50: Secondary Data, WNV, read-out: WNV EC50; for inhibition at 25 µM: primary screening, 25 μM final concentration, 24 hours, percent inhibition of viral replication, read-out: WNV Inh; for WNV TI: therapeutic index CC50/EC50, WNV.

In data set [8] the test system is HCV replicon (Clone A cells, Huh7, subgenomic hepatits C virus RNA). Nature of the data set: HCV Neo screening assay (HCV replicon, NPTII ELISA). In kind it is cell-based, hepatitis C virus. Conditions: for EC50 / inhibition at 25 µM: Hepatitis C virus, Huh-7; for EC50: Secondary Data, HCV; for inhibition at 25 µM: primary screening, 25 μM final concentration, 24 hours, percent inhibition of viral replication, read-out: HCV Inh; for HCV TI: therapeutic index CC50/EC50, HCV.

In the case of `Cc1cc(Nc2cccc(C(F)(F)F)c2)c2cc(Cl)ccc2n1` [Compound 40], the inhibition at 25 µM in data set [1] was determined as 26.3%; in data set [3], 79.6%; in data set [4], 69.5%; in data set [6] it was 99.3%; in data set [7] it was 65.6%; in data set [8], 96.1%. The EC50 in data set [1] was 75 µM; in data set [3] it was 6.45 µM; in data set [4], 14.4 µM; in data set [5], 40.6 µM; in data set [6], 2.43 µM; in data set [7] it was 8.39 µM. This compound had an EC50 in data set [8] of 5.55 µM. In addition, the CC50 is 60 µM in data set [2] (DNG CC50); 60 µM in data set [2] (EBOV CC50); 5.53 µM in data set [2] (HCV CC50); 60 µM in data set [2] (RSV CC50); 60 µM in data set [2] (SINV CC50); 60 µM in data set [2] (WNV CC50). This compound also showed a CC50 in data set [2] (YFV CC50) of 60 µM. For the same compound, the “YFV TI” value in data set [3] is listed as 9.3. Also, the “RSV TI” value in data set [6] was determined as 24.68. Further, the “WNV TI” value in data set [7] came to 7.15. Moreover, the “HCV TI” value in data set [8] is 1.
On to `CCOc1ccc2nc(C)cc(Nc3ccc(Br)cc3)c2c1` [Compound 41], for which the inhibition at 25 µM in data set [1] came out at 95.2%; in data set [3], 96.5%; in data set [4], 97.2%; in data set [6] it was 99.4%; in data set [7], 100%; in data set [8], 117%. In addition, the EC50 in data set [1] worked out at 75 µM; in data set [3] it was 3.61 µM; in data set [4] it was 2.96 µM; in data set [5], 7.91 µM; in data set [6], 2.04 µM; in data set [7] it was 7.4 µM. Besides, the EC50 in data set [8] came out at 4 µM. Moreover, the CC50 in data set [2] (DNG CC50) was 28.8 µM; in data set [2] (EBOV CC50), 28.8 µM; in data set [2] (HCV CC50), 3.01 µM; in data set [2] (RSV CC50), 28.8 µM; in data set [2] (SINV CC50), 28.8 µM; in data set [2] (WNV CC50), 28.8 µM. This compound also had a CC50 in data set [2] (YFV CC50) of 28.8 µM. Further, in data set [3], the “YFV TI” value came out at 7.97. Besides, the “RSV TI” value in data set [6] stood at 14.11. The “WNV TI” value in data set [7] is on record as 3.89. The “HCV TI” value in data set [8] is reported as 0.75.
Turning to `CCOc1ccc2nc(C)cc(Nc3ccc(OCc4ccccc4Cl)cc3)c2c1` [Compound 42], the inhibition at 25 µM in data set [1] stood at 99.5%; in data set [3], 100%; in data set [4] it was 99.8%; in data set [6], 100%; in data set [7], 100%; in data set [8] it was 96.5%. For the same compound, the EC50 in data set [1] stood at 65.8 µM; in data set [3] it was 1.8 µM; in data set [4], 2.99 µM; in data set [5] it was 5.05 µM; in data set [6], 1.48 µM; in data set [7], 1.9 µM. Further, the EC50 in data set [8] was 1.3 µM. For the same compound, the CC50 in data set [2] (DNG CC50) was 25.6 µM; in data set [2] (EBOV CC50) it was 25.6 µM; in data set [2] (HCV CC50), 1.21 µM; in data set [2] (RSV CC50) it was 25.6 µM; in data set [2] (SINV CC50), 25.6 µM; in data set [2] (WNV CC50) it was 25.6 µM. Besides, the CC50 in data set [2] (YFV CC50) was determined as 25.6 µM. Also, the “YFV TI” value in data set [3] was determined as 14.22. Besides, the “RSV TI” value in data set [6] worked out at 17.29. For the same compound, the “WNV TI” value in data set [7] was 13.47. Besides, in data set [8], the “HCV TI” value was 0.93.

One may read the EC50 as the concentration giving half of the maximal effect.
